Laboratory results as given in patent publication US9789181B2, “PAN-DR binding polypeptides and uses thereof” (Epimmune Inc., priority 2009, dated 2017).
Where two headings read alike, the source gives them in different places. Where no end group is shown, it is not given here.

Experiments:
[1] = tested on: crude extract from E. coli; test: In situ protease assay: TNFα variants in E. coli crude extract, SDS-PAGE and Western blot; format: in vitro ADME; details: sequence inserted into loop EF of human TNFα, procedure of Example 2
Method: In order to test the protease resistance of selected, good binding PADRE analogues, their sequences were inserted by cloning techniques into a loop (loop EF) in human TNFα. Cell-free protein crude extract from E. coli expressing the modified TNFα molecules was prepared and proteolytic cleavage within the PADRE analogue sequences was analysed by SDS-PAGE followed by immunoblotting.
A synthetic cDNA encoding TNF (Y87S) was used as template. Oligonucleotides encoding PADRE or PADRE analogues were inserted into the template between A185 and E186 by PCR (cf. above). Resulting cDNAs were cloned into pET28b+(Novagen) and transformed into E. coli strain HMS 174. For recombinant expression, the resulting E. coli strains were cultured in fermentors in a defined medium at 37° C. Induction of recombinant expression was initiated by the addition of 1 mM of IPTG and temperature was lowered to 25° C. Cultures were harvested at 4, 8 or 24 h post-IPTG induction. TNFα variants were purified to >90% homogeneity by affinity chromatography using a TNFα specific monoclonal antibody as described in Nielsen et al., (2004), J Biol. Chem. 279:33593-33600. The purified TNFα variants were characterized by MALDI-TOF mass spectrometry to verify their identity and integrity.
In Situ Protease Assay: Analysis of the Protease Resistance of TNF-α Variants Using Western Blot
Aliquots (1 ml) of E. coli cell cultures, expressing the various TNF-α variants to be tested, were centrifuged (5000 g/5 min/5° C.) and the culture medium was discarded. Cell pellets were resuspended in 1 ml of 20 mM Bis-Tris, pH 6.0. Cell disruption was achieved by sonication (4×15 sec at an amplitude of 11 μm with 20 sec pauses between each sonication round). The resulting suspensions were centrifuged (20000 g/30 min/8° C.) and the supernatants (crude extracts) were transferred to fresh tubes. Crude extracts were then analysed for protein content using a Bradford protein assay (Biorad). Equivalent amounts of proteins were loaded onto 4-12% NuPAGE gels (Novex). After SDS-PAGE, proteins were transferred onto nitrocellulose membrane by semi-dry blotting. For immunoreaction, incubation with rabbit TNFα antiserum (1 h; dilution 1:10 000) and with horse radish peroxidase-conjugated secondary antibody (Dako P448) were carried out in Tris 50 mM, NaCl 150 mM, EDTA 5 mM, Igepal 0.1%, gelatine 0.5%. Detection was with ECL™ reagents (GE Healthcare).

[2] = target: T1, HLA DRB1 *0405 (Homo sapiens, UniProt P01903+P01911, A100R/A169T/D86S/F76Y/I96L/K127E/L162R/M171V/N62H/P40V/Q125Y/R42H/S133A/S149N/S66Y/V115G/V209L/W38E); test: IC50nM to purified HLA | DRB1 *0405
Method: (§1) Table printed on a drawing sheet, FIG. 1 (contd.)
(§2) Head of the field: IC50nM to purified HLA | DRB1 *0405
(§3) First copying reader's note: Continued from an earlier sheet of FIG. 1; decimal commas as printed, analog names encode substituted residues and positions, and some values are printed in italics or bold and some SEQ ID NOs underlined without a legend on this sheet.
(§4) Where the first naming reader finds the target: head: IC50nM to purified HLA | DRB1 *0405

[3] = target: T2, HLA DRB1 *0701 (Homo sapiens, UniProt P01903+P01911, A100R/A102G/A103Q/D57E/D86V/E43K/F76Y/K127E/L162R/M171V/P40G/Q125H/Q99D/R33Q/R42Y/R54Q/S133A/S66F/T210M/V115G/Y107V/Y59L/Y89S); test: IC50nM to purified HLA | DRB1 *0701
Method: as §1
(§5) Head of the field: IC50nM to purified HLA | DRB1 *0701
as §3
(§6) Where the first naming reader finds the target: head: IC50nM to purified HLA | DRB1 *0701

[4] = target: T3, HLA DRB1 *0802 (Homo sapiens, UniProt P01903+P01911, A100R/A103L/A169T/F76Y/H45Y/I96F/K41T/L162R/M171V/P40S/Q125H/Q178H/Q39Y/Q99D/R218S/R42G/S66Y/V115G/W38E); test: IC50nM to purified HLA | DRB1 *0802
Method: as §1
(§7) Head of the field: IC50nM to purified HLA | DRB1 *0802
as §3
(§8) Where the first naming reader finds the target: head: IC50nM to purified HLA | DRB1 *0802

[5] = target: HLA DRB4 *0101 (Homo sapiens, UniProt P01903+P13762, G164S); test: IC50nM to purified HLA | DRB4 *0101
Method: as §1
Head of the field: IC50nM to purified HLA | DRB4 *0101
as §3
Where the first naming reader finds the target: head: IC50nM to purified HLA | DRB4 *0101

[6] = target: T4, HLA DRB1 *1302 (Homo sapiens, UniProt P01903+P01911, A100E/A169T/K41T/L162R/M171V/P40S/Q125H/Q178H/Q39Y/Q99D/R42S/S66N/T262R/V115G/W38E/Y61H); test: IC50nM to purified HLA | DRB1 *1302
Method: as §1
(§9) Head of the field: IC50nM to purified HLA | DRB1 *1302
as §3
(§10) Where the first naming reader finds the target: head: IC50nM to purified HLA | DRB1 *1302

[7] = target: HLA DRB1 *1501 (Homo sapiens, UniProt P01903+P01911); test: IC50nM to purified HLA | DRB1 *1501
Method: as §1
Head of the field: IC50nM to purified HLA | DRB1 *1501
as §3
Where the first naming reader finds the target: head: IC50nM to purified HLA | DRB1 *1501

[8] = target: HLA DRB1 *0404 (Homo sapiens, UniProt P01903+P01911, A100R/A169T/F76Y/I96L/K127E/L162R/M171V/N62H/P40V/Q125Y/R42H/S133A/S149N/S66Y/V209L/W38E); test: IC50nM to purified HLA | DRB1 *0404
Method: as §1
Head of the field: IC50nM to purified HLA | DRB1 *0404
as §3
Where the first naming reader finds the target: head: IC50nM to purified HLA | DRB1 *0404

[9] = target: HLA DRB1 *0101 (Homo sapiens, UniProt P01903+P01911, A100R/D57E/F55L/F60I/F76Y/I96L/L162R/M171V/P40L/Q125E/R42F/V115G/Y59C); test: IC50nM to purified HLA | DRB1 *0101
Method: as §1
Head of the field: IC50nM to purified HLA | DRB1 *0101
(§11) First copying reader's note: Continued from the preceding sheet of FIG. 1; decimal commas are used, the analog names give the substituted residues and positions in PADRE, and some values are printed in italics or bold and some SEQ ID NOs bold and underlined without a legend on this sheet.
Where the first naming reader finds the target: head: IC50nM to purified HLA | DRB1 *0101

[10] = target: HLA DRB1 *0301 (Homo sapiens, UniProt P01903+P01911, A100K/A102G/A103R/A169T/F55Y/I96L/K41T/L162R/M171V/P40S/Q125H/Q178H/Q39Y/R42S/S66N/T106N/T262R/W38E/Y61H); test: IC50nM to purified HLA | DRB1 *0301
Method: as §1
Head of the field: IC50nM to purified HLA | DRB1 *0301
as §11
Where the first naming reader finds the target: head: IC50nM to purified HLA | DRB1 *0301

[11] = target: HLA DRB1 *0401 (Homo sapiens, UniProt P01903+P01911, A100K/A169T/F76Y/I96L/K127E/L162R/M171V/N62H/P40V/Q125Y/R42H/S133A/S149N/S66Y/V115G/V209L/W38E); test: IC50nM to purified HLA | DRB1 *0401
Method: as §1
Head of the field: IC50nM to purified HLA | DRB1 *0401
as §11
Where the first naming reader finds the target: head: IC50nM to purified HLA | DRB1 *0401

[12] = target: T3, HLA DRB1 *0802; test: IC50nM to purified HLA | DRB1 *0802; remark: listed apart in the source
Method: as §1, §7, §11, §8

[13] = target: HLA DRB1 *0901 (Homo sapiens, UniProt P01903+P01911, A100R/A103E/D57H/D86V/F55Y/F60I/F76Y/I96F/K127E/L162R/M171V/P40D/Q125H/Q99R/R33Q/R42F/S133A/S66N/T210M/V115G/W38K/Y107V/Y59G/Y89S); test: IC50nM to purified HLA | DRB1 *0901
Method: as §1
Head of the field: IC50nM to purified HLA | DRB1 *0901
as §11
Where the first naming reader finds the target: head: IC50nM to purified HLA | DRB1 *0901

[14] = target: HLA DRB1 *1101 (Homo sapiens, UniProt P01903+P01911, A100R/A169T/A87E/I96F/K41T/L162R/M171V/P40S/Q125H/Q178H/Q39Y/Q99D/R42S/S66Y/T262R/V115G/W38E); test: IC50nM to purified HLA | DRB1 *1101
Method: as §1
Head of the field: IC50nM to purified HLA | DRB1 *1101
as §11
Where the first naming reader finds the target: head: IC50nM to purified HLA | DRB1 *1101

[15] = target: T1, HLA DRB1 *0405; test: IC50nM to purified HLA | DRB1 *0405; remark: listed apart in the source
Method: as §1, §2, §11, §4

[16] = target: T2, HLA DRB1 *0701; test: IC50nM to purified HLA | DRB1 *0701; remark: listed apart in the source
Method: as §1, §5, §11, §6

[17] = target: T4, HLA DRB1 *1302; test: IC50nM to purified HLA | DRB1 *1302; remark: listed apart in the source
Method: as §1, §9, §11, §10

[18] = target: HLA DRB5 *0101 (Homo sapiens, UniProt P01903+Q30154); test: IC50nM to purified HLA | DRB5 *0101
Method: as §1
Head of the field: IC50nM to purified HLA | DRB5 *0101
as §11
Where the first naming reader finds the target: head: IC50nM to purified HLA | DRB5 *0101

T4 sequence (P01903 26-254 limits assumed, other chains not shown): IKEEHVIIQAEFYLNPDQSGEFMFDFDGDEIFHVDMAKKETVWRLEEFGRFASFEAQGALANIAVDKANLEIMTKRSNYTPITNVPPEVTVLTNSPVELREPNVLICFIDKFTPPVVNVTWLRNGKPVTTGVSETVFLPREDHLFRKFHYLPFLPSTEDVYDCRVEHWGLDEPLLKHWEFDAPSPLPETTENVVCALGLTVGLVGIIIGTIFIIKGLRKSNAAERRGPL
Chain of HLA DRB1 *1101 (P01903 26-254 limits assumed, other chains not shown): as above
Chain of HLA DRB4 *0101 (P01903 26-254 limits assumed): as the sequence (P01903 26-254 limits assumed, other chains not shown) above
Chain of HLA DRB4 *0101 (P13762 whole entry G164S): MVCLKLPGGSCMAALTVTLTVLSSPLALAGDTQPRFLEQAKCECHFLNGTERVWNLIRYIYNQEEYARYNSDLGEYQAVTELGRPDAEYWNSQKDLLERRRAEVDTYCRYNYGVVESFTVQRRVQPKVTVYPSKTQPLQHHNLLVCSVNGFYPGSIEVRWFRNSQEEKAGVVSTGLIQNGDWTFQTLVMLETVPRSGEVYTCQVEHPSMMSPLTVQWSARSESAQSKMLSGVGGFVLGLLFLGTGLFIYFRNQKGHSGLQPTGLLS
Chain of HLA DRB1 *0301 (P01903 26-254 limits assumed, other chains not shown): as the sequence (P01903 26-254 limits assumed, other chains not shown) above

AAAIFVAAWTLHAAA [SEQ ID NO: 69]
protease resistance of PADRE analogue sequence [1]: increased resistance towards proteolytic degradation | IC50 [2]: 13 nM | IC50 [3]: 78 nM | IC50 [4]: 12 nM | IC50 [5]: 84 nM | IC50 [6]: 891 nM | IC50 [7]: 9.4 nM | IC50 [8]: 3.7 nM

AAAHFVAANTLHAAA [SEQ ID NO: 29]
protease resistance of PADRE analogue sequence [1]: increased resistance towards proteolytic degradation | IC50 [9]: 4.1 nM | IC50 [10]: 361 nM | IC50 [11]: 4.5 nM | IC50 [12]: 17 nM | IC50 [13]: 37 nM | IC50 [14]: 22 nM | IC50 [15]: 18 nM | IC50 [16]: 76 nM | IC50 [17]: 47 nM | IC50 [18]: 33 nM
